Data taken from publication PMC12112476, “Mass Spectrometric ITEM-FOUR Analysis Reveals Coding Single-Nucleotide Polymorphisms in Human Cardiac Troponin T That Evade Detection by Sandwich ELISAs Which Use Monoclonal Antibodies M7 and M11.7 from the Elecsys Troponin T® Assay” (International Journal of Molecular Sciences, 2025).

Experiments:
[1] = test system: monoclonal anti-hcTnT antibody M11.7; assay: ITEM-FOUR nano-ESI mass spectrometry: in-solution immune complex formation and gas-phase dissociation of M11.7 antibody–epitope peptide complexes; assay type: binding; details: for dx (V): Boltzmann curve parameter; for dx (V) / ΔCV50 (V) / Slope (%/V) / Δ (% pts) / in-solution immune complex formation with M11.7 (binding in words): peptide:antibody 13:1; for dx (V) / ΔCV50 (V) / Final (%) / Initial (%) / Slope (%/V): averaged from two acquisitions; for Binding Type: class by difference of normalized product ion intensities over ΔCV; for ΔCV50 (V): collision cell voltage difference for 50% dissociation, Boltzmann fit; for Final (%): normalized product ion quantity at highest applied ΔCV, peptide:antibody 13:1, 200 mM ammonium acetate pH 6.7; for Initial (%): normalized product ion quantity at lowest applied ΔCV, peptide:antibody 13:1, 200 mM ammonium acetate pH 6.7, at least 1 h RT, nano-ESI, ΔCV 0-58 V; for Slope (%/V): slope of Boltzmann curve; for Δ (% pts): difference Final minus Initial normalized product ion intensity; for in-solution immune complex formation with M11.7 (binding in words): nano-ESI-MS, 200 mM ammonium acetate pH 6.7; for KD m0g# [Ø]: apparent gas-phase dissociation constant, dimensionless number, extrapolated to ambient temperature; for ΔGm0g# / Tamb ΔSm0g# / ΔHm0g#: pseudo thermodynamic value of gas-phase complex dissociation; for ΔGm0g#: Ellingham diagram read at Tamb; for Tamb ΔSm0g# / ΔHm0g#: extrapolated to Tamb
Description: (§1) Immune complex-containing solutions of a wild-type epitope peptide and its corresponding antibody, e.g., P11 and M7, were prepared by mixing the two components in 200 mM ammonium acetate buffer (pH 6.7), ensuring a molar excess of the epitope peptide over the antibody to achieve binding saturation. After an incubation period of one hour, the entire mixture (~3 µL) was loaded into a nano-ESI emitter and electrosprayed. The mass spectrometer was configured to transmit only ion signals with m/z values above 3850, effectively eliminating signals from the unbound peptide (Figure 1A).
(§2) Antibody–peptide mixture solutions were prepared for ITEM FOUR experiments by mixing 5 µL of one antibody working solution with one assigned peptide working solution to generate antibody to peptide molar ratios of 1:2.1 for all solutions that contained the M7 antibody. For mixture solutions containing the M11.7 or the anti-TNFα antibody, 1:13 molar ratios were prepared. Antibodies were incubated together with peptides for at least one hour at room temperature prior to analysis.
(§3) Data acquisition for ITEM-FOUR experiments was performed as described in [18] with the Synapt G2S mass spectrometer (Waters MS-Technologies, Wilmslow, UK) and with the following instrumental settings: source temperature, 40 °C; capillary voltage, 1.0–1.3 kV; sample cone voltage, 130 V; source offset voltage, 130 V; trap gas flow (argon), 8.0 mL/min; helium gas: 20 bar. All mass spectra were acquired in positive-ion mode applying a mass window of m/z 200–8000. The quadrupole analyzer was used to block transmission of lower-molecular-mass ions: M1 = 5000 with dwell time of 25% and ramp time of 25%; M2 = 5000 with dwell time of 25% and ramp time of 25%; M3 = 5000. ΔCV in the TRAP collision cell was increased stepwise as follows: 0, 2, 6, 10, 14, 18, 22, 26, 30, 34, 40, 46, 52 and 58 V. The ion mobility separation mode was not used. All acquired scans during a given collision cell voltage difference setting were integrated to obtain an averaged spectrum from which ion intensities were extracted for ITEM-FOUR calculations. Data were acquired and processed with MassLynx software version 4.1 (Waters MS-Technologies). For exact time stamps of all measurements, refer to Table S2 in the Supplement (see also the deposited raw data supplement in the PRIDE directory). All mass spectra for each ΔCV setting were smoothed using the Savitzky-Golay method. Spectra of antibody solutions and antibody–peptide mixture solutions were smoothed using 30 cycles with a 15-mass unit window at the high mass end and at the low mass end with 3 cycles and a 2-mass unit window. All measurements were recorded in duplicate. The mass spectrometric raw data have been deposited via the ProteomeXchange Consortium in the PRIDE partner repository with the dataset identifier PXD058812 [70].
(§4) The Origin Pro 2023b (64-bit, OriginLab Corporation, Northampton, MA, USA) software package with an automation script for processing multiple datasets was used to graphically plot the extracted intensities of the ion signals of all relevant molecular entities (the immune complex with two bound peptides, the immune complex with one bound peptide, free antibodies, and free peptides) against their corresponding charge state for each collision cell voltage difference (ΔCV). Subsequently, Gaussian curve fittings were performed separately for each molecular entity. […] Iterations were performed for R2 values to be at least 0.91. Apices of Gaussian curves provided the intensities and the average m/z values for each molecular species. Intensity values of individual molecular entities (educts and products) were summed and normalized. Normalized intensities of educts and products from duplicate measurements were averaged.
(§5) The number of atoms from rituximab was used because the amino acid sequences of neither the M7 nor the M11.7 antibody were disclosed. […]

[2] = test system: monoclonal anti-hcTnT antibody M7; assay: ITEM-FOUR nano-ESI mass spectrometry: in-solution immune complex formation and gas-phase dissociation of M7 antibody–epitope peptide complexes; assay type: binding; details: for dx (V): Boltzmann curve parameter; for dx (V) / ΔCV50 (V) / Slope (%/V): peptide:antibody 2.1:1; for dx (V) / ΔCV50 (V) / Final (%) / Initial (%) / Slope (%/V): averaged from two acquisitions; for KD m0g# [Ø]: apparent gas-phase dissociation constant, dimensionless number, extrapolated to ambient temperature; for Binding Type: class by difference of normalized product ion intensities over ΔCV; for ΔCV50 (V): collision cell voltage difference for 50% dissociation, Boltzmann fit; for Final (%): normalized product ion quantity at highest applied ΔCV, peptide:antibody 2.1:1, 200 mM ammonium acetate pH 6.7; for Initial (%): normalized product ion quantity at lowest applied ΔCV, peptide:antibody 2.1:1, 200 mM ammonium acetate pH 6.7, at least 1 h RT, nano-ESI, ΔCV 0-58 V; for ΔGm0g# / Tamb ΔSm0g# / ΔHm0g#: pseudo thermodynamic value of gas-phase complex dissociation; for ΔGm0g#: Ellingham diagram read at Tamb; for Tamb ΔSm0g# / ΔHm0g#: extrapolated to Tamb; for Slope (%/V): slope of Boltzmann curve; for in-solution immune complex formation with M7 (binding in words): nano-ESI-MS, 200 mM ammonium acetate pH 6.7, peptide:antibody 2.1:1 (epitope series) or 13:1 (negative controls)
Description: as §1, §2, §3, §4, §5

| Sequence | dx (V) [1] | Binding Type [1] | ΔCV50 (V) [1] | Final (%) [1] | Initial (%) [1] | Slope (%/V) [1] | Binding Type [2] | Final (%) [2] | Initial (%) [2] | also measured |
| --- | --- | --- | --- | --- | --- | --- | --- | --- | --- | --- |
| AEQQCIRNEREKERQ [Peptide P25] | 6.00 V | unorthodox (Differences in normalized product ion intensities were less than 15 percentage points, but greater than 5 percentage points) | 10.06 V | 93.33% | 80.75% | 0.52 %/V |  |  |  |  |
| AEQQHIRNEREKERQ [Peptide P27] | 7.60 V | unorthodox (Differences in normalized product ion intensities were less than 15 percentage points, but greater than 5 percentage points) | 14.04 V | 93.49% | 80.22% | 0.44 %/V |  |  |  |  |
| AEQQRIQNEREKERQ [Peptide P29] | 5.17 V | unorthodox (Differences in normalized product ion intensities were less than 15 percentage points, but greater than 5 percentage points) | 9.96 V | 93.92% | 84.39% | 0.46 %/V |  |  |  | Δ (% pts) [1]: 9.53 % pts |
| AEQQRIRNEQEKERQ [Peptide P31] |  | non-binding (The differences in normalized product intensity values were less than 5 percentage points) |  | 93.39% | 93.60% |  |  |  |  | in-solution immune complex formation with M11.7 (binding in words) [1]: Loss of binding |
| AEQQRIRNERKKERQ [Peptide P32] | 7.32 V | orthodox (The differences in normalized product ion intensity values were always greater than 15 percentage points) | 17.63 V | 96.03% | 69.09% | 0.92 %/V |  |  |  | KD m0g# [Ø] [1]: 1.43 Ø; ΔGm0g# [1]: -0.88 kJ/mol; Tamb ΔSm0g# [1]: 51.23 kJ/mol; ΔHm0g# [1]: 50.35 kJ/mol |
| AEQQRIRNEWEKERQ [Peptide P30] |  | non-binding (The differences in normalized product intensity values were less than 5 percentage points) |  | 94.03% | 90.48% |  |  |  |  | in-solution immune complex formation with M11.7 (binding in words) [1]: Loss of binding |
| AEQQRIWNEREKERQ [Peptide P28] | 6.90 V | unorthodox (Differences in normalized product ion intensities were less than 15 percentage points, but greater than 5 percentage points) | 13.80 V | 93.90% | 86.91% | 0.25 %/V |  |  |  | Δ (% pts) [1]: 6.99 % pts |
| AEQQSIRNEREKERQ [Peptide P26] | 6.49 V | unorthodox (Differences in normalized product ion intensities were less than 15 percentage points, but greater than 5 percentage points) | 26.67 V | 86.48% | 80.48% | 0.25 %/V |  |  |  | Δ (% pts) [1]: 6.00 % pts |
| AEQRRIRNEREKERQ [Peptide P24] |  | non-binding (The differences in normalized product intensity values were less than 5 percentage points) |  | 93.57% | 90.25% |  |  |  |  | in-solution immune complex formation with M11.7 (binding in words) [1]: Loss of binding |
| AKQQRIRNEREKERQ [Peptide P23] | 7.29 V | orthodox (The differences in normalized product ion intensity values were always greater than 15 percentage points) | 22.47 V | 89.77% | 67.00% | 0.78 %/V |  |  |  | KD m0g# [Ø] [1]: 1.18 Ø; ΔGm0g# [1]: -0.42 kJ/mol; Tamb ΔSm0g# [1]: 37.81 kJ/mol; ΔHm0g# [1]: 37.41 kJ/mol |
| AQQQRIRNEREKERQ [Peptide P22] | 7.70 V | unorthodox (Differences in normalized product ion intensities were less than 15 percentage points, but greater than 5 percentage points) | 25.18 V | 97.12% | 87.08% | 0.33 %/V |  |  |  |  |
| LVSLKDRIERCRAER [Peptide P13] |  |  |  |  |  |  | orthodox (The differences in normalized product ion intensity values were always greater than 15 percentage points) | 83.40% | 40.36% | dx (V) [2]: 6.55 V; KD m0g# [Ø] [2]: 0.28 Ø; ΔCV50 (V) [2]: 23.30 V; ΔGm0g# [2]: 3.17 kJ/mol; Tamb ΔSm0g# [2]: 51.99 kJ/mol; ΔHm0g# [2]: 55.16 kJ/mol; Slope (%/V) [2]: 1.64 %/V |
| LVSLKDRIERRGAER [Peptide P15] |  |  |  |  |  |  | unorthodox (Differences in normalized product ion intensities were less than 15 percentage points, but greater than 5 percentage points) | 84.98% | 70.69% | dx (V) [2]: 6.09 V; ΔCV50 (V) [2]: 24.89 V; Slope (%/V) [2]: 0.59 %/V |
| LVSLKDRIERRPAER [Peptide P16] |  |  |  |  |  |  | orthodox (The differences in normalized product ion intensity values were always greater than 15 percentage points) | 96.90% | 55.34% | dx (V) [2]: 5.05 V; KD m0g# [Ø] [2]: 0.48 Ø; ΔCV50 (V) [2]: 15.83 V; ΔGm0g# [2]: 1.84 kJ/mol; Tamb ΔSm0g# [2]: 83.77 kJ/mol; ΔHm0g# [2]: 85.61 kJ/mol; Slope (%/V) [2]: 2.06 %/V |
| LVSLKDRIERRQAER [Peptide P17] |  |  |  |  |  |  | orthodox (The differences in normalized product ion intensity values were always greater than 15 percentage points) | 82.69% | 56.18% | dx (V) [2]: 6.46 V; KD m0g# [Ø] [2]: 0.62 Ø; ΔCV50 (V) [2]: 24.61 V; ΔGm0g# [2]: 1.14 kJ/mol; Tamb ΔSm0g# [2]: 36.92 kJ/mol; ΔHm0g# [2]: 38.06 kJ/mol; Slope (%/V) [2]: 1.03 %/V |
| LVSLKDRIERRWAER [Peptide P14] |  |  |  |  |  |  | orthodox (The differences in normalized product ion intensity values were always greater than 15 percentage points) | 93.86% | 54.37% | dx (V) [2]: 4.33 V; KD m0g# [Ø] [2]: 0.28 Ø; ΔCV50 (V) [2]: 18.02 V; ΔGm0g# [2]: 3.13 kJ/mol; Tamb ΔSm0g# [2]: 88.96 kJ/mol; ΔHm0g# [2]: 92.09 kJ/mol; Slope (%/V) [2]: 2.28 %/V |
| LVSLKDRIKRRRAER [Peptide P12] |  |  |  |  |  |  | non-binding (The differences in normalized product intensity values were less than 5 percentage points) | 92.28% | 89.38% | in-solution immune complex formation with M7 (binding in words) [2]: no immune complex had formed in solution; in-solution immune complex formation with M7 (binding in words) ([2]; listed as E138K): disrupted binding |
